Laboratory results published in patent publication US20140357512A1, “HISTONE DEACETYLASE (HDAC) BIOMARKERS IN MULTIPLE MYELOMA” (priority 2013, published 2014).

System: human myeloma cell line MM.1S
Assay: CNP analysis: acetylated peptides in cytoplasm (C), soluble nuclear extract (N), insoluble nuclear pellet (P) of Compound B treated cells
Assay type: cell-based
Conditions: for change in quantity of acetylated peptide, C / fold change in quantity of acetylated peptide, C: cytoplasm (C), normalized to total (C+N+P); for C: change in quantity of acetylated peptide normalized to total (C+N+P) / C: fold change in quantity of acetylated peptide normalized to total (C+N+P): cytoplasm fraction; for P: change in quantity of acetylated peptide normalized to total (C+N+P) / P: fold change in quantity of acetylated peptide normalized to total (C+N+P): insoluble nuclear pellet; for N: change in quantity of acetylated peptide normalized to total (C+N+P) / N: fold change in quantity of acetylated peptide normalized to total (C+N+P): soluble nuclear extract
Method: This example describes the CNP analysis that was performed on Compound B treated cells from Example 1.
The SILAC method was performed as described in Example 1.
The harvested “heavy” and “light” labeled cells were initially lysed with 2×NETN buffer (200 mM NaCl, 100 mM Tris-Cl, 2 mM EDTA, 1.0% NP-40, pH 7.2) on ice for 15 min, respectively. The supernatants were saved after 20,000×g centrifugation for 10 minutes at 4° C. After measurement of the protein concentration in “heavy” or “light” labeled supernatants, equal amounts of crude proteins in supernatant were mixed, and the crude proteins were precipitated by adding trifluoroacetic acid (TFA) with 15% final concentration (v/v) (this was called the cytosolic fraction). After washing twice with −20° C. acetone, the proteins pellets were dissolved in 100 mM NH4HCO3 (pH 8.0) for trypsin digestion.
The remaining cell pellets were further lysed with 1×ETN buffer (100 mM NaCl, 50 mM Tris-Cl, 1 mM EDTA, pH 7.2) supplemented with 0.5% Triton X-100 on ice for 15 min, respectively. The resulting lysates were clarified by 20,000×g centrifugation for 10 minutes, and the supernatant was saved as nuclear extracts fractions. After measurement of the protein concentration in “heavy” or “light” labeled supernatant, equal amount of crude proteins in supernatant were mixed, and the crude proteins were precipitated by adding trifluoroacetic acid (TFA) with 15% final concentration (v/v) (this was called the nuclear extracts fraction). After washing twice with −20° C. acetone, the proteins pellets were dissolved in 100 mM NH4HCO3 (pH 8.0) for trypsin digestion.
The final remaining cell pellets were dissolved in 8 M urea to extract the chromatin-binding proteins. After measurement of protein concentration, equal amount of chromatin-binding proteins in urea solution were mixed, and the proteins were precipitated by adding trifluoroacetic acid (TFA) with 15% final concentration (v/v) (this was called the nuclear pellet fraction). After washing twice with −20° C. acetone, the proteins pellets were dissolved in 100 mM NH4HCO3 for trypsin digestion.
After trypsin digestion for the above three fractions, the Kac affinity enrichment followed by MS analysis and data inquiry were separately performed. The combined Kac data formed the total Kac profiling data in the pair of Compound B vs DMSO.
Compound B treated cell lysate was fractionated into three subcellular fractions—cytoplasm (C), soluble nuclear extract (N), and insoluble nuclear pellet (P), as described above. Any peptides identified as HDAC6 specific in Example 1 with this subcellular localization information was extremely helpful for understanding their functions inside cells.
The third, fourth, and fifth columns of Table 2 show data for Compound B. A “+” indicates a 1.3 fold change or greater in the quantity of peptide when normalized to the total (C+N+P=total) for each peptide for each drug treated group of cells. A “−” indicates a 1.29 fold change or less in the quantity of peptide when normalized to the total (C+N+P=total) for each peptide for each drug treated group of cells. “None” indicates unknown.
The sixth, seventh, and eighth columns of Table 2 show data for Compound B. The numbers in these columns represent the fold change in the quantity of peptide when normalized to the total (C+N+P=total) for each peptide for each drug treated group of cells. The numbers are in a log 2 scale so 1 represents a 2× change, 0 represents no change, and None represents unknown.

[1] = peptide AVLIDK(ac)DQSPK (SEQ ID NO: 577), gene HIBCH
[2] = peptide CSK(ac)LPSSTK(ac)SGWPR (SEQ ID NO: 711), gene PHF15
[3] = peptide DFGSFDK(ac)FK (SEQ ID NO: 709), gene SOD2
[4] = peptide INKALDK(ac)TK (SEQ ID NO: 802), gene MYH9
[5] = peptide K(ac)AINK(ac)AQK (SEQ ID NO: 793), gene HIST1H2BM
[6] = peptide KGEDFVK(ac)TLK (SEQ ID NO: 750), gene MDH2
[7] = peptide LENDK(ac)SFR (SEQ ID NO: 678), gene ECI1
[8] = peptide SELTGK(ac)FEK (SEQ ID NO: 778), gene ANXA5

## O=C(NO)c1cnc(NC2(c3cccc(F)c3)CCCCC2)nc1 [Compound B, 2-((1-(3-fluorophenyl)cyclohexyl)amino)-N-hydroxypyrimidine-5-carboxamide]
[1]
  change in quantity of acetylated peptide, C: − (A “−” indicates a 1.29 fold change or less in the quantity of peptide when normalized to the total (C+N+P=total))
  fold change in quantity of acetylated peptide, C: 0.00 log 2
Peptide FYK(ac)DVLEVGELAK (SEQ ID NO: 596), gene NAA50
  change in quantity of acetylated peptide, C: − (A “−” indicates a 1.29 fold change or less in the quantity of peptide when normalized to the total (C+N+P=total))
Peptide FYK(ac)[…] (SEQ ID NO: 596), gene NAA50
  fold change in quantity of acetylated peptide, C: 0.12 log 2
Peptide NCSSFLIK(ac)R (SEQ ID NO: 558), gene RPL28
  fold change in quantity of acetylated peptide, C: 0.05 log 2
Peptide VTCIDPNPNFEK(ac)FLIK (SEQ ID NO: 671), gene METTL7A
  change in quantity of acetylated peptide, C: + (A “+” indicates a 1.3 fold change or greater in the quantity of peptide when normalized to the total (C+N+P=total))
Peptide […](ac)FLIK (SEQ ID NO: 671), gene METTL7A
  fold change in quantity of acetylated peptide, C: 0.44 log 2
Peptide […](ac)QNK (SEQ ID NO: 650), gene DLD
  fold change in quantity of acetylated peptide, C: 0.18 log 2
[2]
  C: change in quantity of acetylated peptide normalized to total (C+N+P): − (A “−” indicates a 1.29 fold change or less in the quantity of peptide when normalized to the total (C+N+P=total))
  C: fold change in quantity of acetylated peptide normalized to total (C+N+P): 0.11 log 2 scale
  P: change in quantity of acetylated peptide normalized to total (C+N+P): + (A “+” indicates a 1.3 fold change or greater in the quantity of peptide when normalized to the total (C+N+P=total))
  P: fold change in quantity of acetylated peptide normalized to total (C+N+P): 0.43 log 2 scale
  N: change in quantity of acetylated peptide normalized to total (C+N+P): − (A “−” indicates a 1.29 fold change or less in the quantity of peptide when normalized to the total (C+N+P=total))
  N: fold change in quantity of acetylated peptide normalized to total (C+N+P): 0.04 log 2 scale
[3]
  C: change in quantity of acetylated peptide normalized to total (C+N+P): − (A “−” indicates a 1.29 fold change or less in the quantity of peptide when normalized to the total (C+N+P=total))
  C: fold change in quantity of acetylated peptide normalized to total (C+N+P): −0.28 log 2 scale
  P: change in quantity of acetylated peptide normalized to total (C+N+P): − (A “−” indicates a 1.29 fold change or less in the quantity of peptide when normalized to the total (C+N+P=total))
  N: change in quantity of acetylated peptide normalized to total (C+N+P): + (A “+” indicates a 1.3 fold change or greater in the quantity of peptide when normalized to the total (C+N+P=total))
  N: fold change in quantity of acetylated peptide normalized to total (C+N+P): −0.48 log 2 scale
[4]
  C: change in quantity of acetylated peptide normalized to total (C+N+P): − (A “−” indicates a 1.29 fold change or less in the quantity of peptide when normalized to the total (C+N+P=total))
  P: change in quantity of acetylated peptide normalized to total (C+N+P): − (A “−” indicates a 1.29 fold change or less in the quantity of peptide when normalized to the total (C+N+P=total))
  N: change in quantity of acetylated peptide normalized to total (C+N+P): + (A “+” indicates a 1.3 fold change or greater in the quantity of peptide when normalized to the total (C+N+P=total))
  N: fold change in quantity of acetylated peptide normalized to total (C+N+P): 4.75 log 2 scale
[5]
  C: change in quantity of acetylated peptide normalized to total (C+N+P): − (A “−” indicates a 1.29 fold change or less in the quantity of peptide when normalized to the total (C+N+P=total))
  P: change in quantity of acetylated peptide normalized to total (C+N+P): − (A “−” indicates a 1.29 fold change or less in the quantity of peptide when normalized to the total (C+N+P=total))
  P: fold change in quantity of acetylated peptide normalized to total (C+N+P): 0.27 log 2 scale
  N: change in quantity of acetylated peptide normalized to total (C+N+P): + (A “+” indicates a 1.3 fold change or greater in the quantity of peptide when normalized to the total (C+N+P=total))
  N: fold change in quantity of acetylated peptide normalized to total (C+N+P): −0.97 log 2 scale
[6]
  C: change in quantity of acetylated peptide normalized to total (C+N+P): − (A “−” indicates a 1.29 fold change or less in the quantity of peptide when normalized to the total (C+N+P=total))
  C: fold change in quantity of acetylated peptide normalized to total (C+N+P): 0.15 log 2 scale
  P: change in quantity of acetylated peptide normalized to total (C+N+P): − (A “−” indicates a 1.29 fold change or less in the quantity of peptide when normalized to the total (C+N+P=total))
  N: change in quantity of acetylated peptide normalized to total (C+N+P): + (A “+” indicates a 1.3 fold change or greater in the quantity of peptide when normalized to the total (C+N+P=total))
  N: fold change in quantity of acetylated peptide normalized to total (C+N+P): 0.49 log 2 scale
[7]
  C: change in quantity of acetylated peptide normalized to total (C+N+P): − (A “−” indicates a 1.29 fold change or less in the quantity of peptide when normalized to the total (C+N+P=total))
  C: fold change in quantity of acetylated peptide normalized to total (C+N+P): 0.12 log 2 scale
  P: change in quantity of acetylated peptide normalized to total (C+N+P): − (A “−” indicates a 1.29 fold change or less in the quantity of peptide when normalized to the total (C+N+P=total))
  N: change in quantity of acetylated peptide normalized to total (C+N+P): + (A “+” indicates a 1.3 fold change or greater in the quantity of peptide when normalized to the total (C+N+P=total))
  N: fold change in quantity of acetylated peptide normalized to total (C+N+P): −0.38 log 2 scale
[8]
  C: change in quantity of acetylated peptide normalized to total (C+N+P): − (A “−” indicates a 1.29 fold change or less in the quantity of peptide when normalized to the total (C+N+P=total))
  C: fold change in quantity of acetylated peptide normalized to total (C+N+P): 0.31 log 2 scale
  P: change in quantity of acetylated peptide normalized to total (C+N+P): − (A “−” indicates a 1.29 fold change or less in the quantity of peptide when normalized to the total (C+N+P=total))
  N: change in quantity of acetylated peptide normalized to total (C+N+P): + (A “+” indicates a 1.3 fold change or greater in the quantity of peptide when normalized to the total (C+N+P=total))
  N: fold change in quantity of acetylated peptide normalized to total (C+N+P): 0.40 log 2 scale
